The source of these data is PubChem BioAssay AID651817 (Broad Institute, 2012).

The source made the active and inactive calls.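 Rule for the calls: active = compound whose fitted luminescence drop, meaning cytotoxicity, reaches half effect at most twice its top valid tested dose; inconclusive = flat curve with a moderate drop, or an unreliable fit; inactive = rise instead of drop, flat response, or weaker potency.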

A short description of one assay: NIH/3T3 fibroblast cytotoxicity, dose response, cytotoxicity control for T. cruzi growth inhibitor project, cell-based, cherry-pick samples, set 2 (AID 651817). To be noted: NIH/3T3 viability, ATP luminescence (CellTiter-Glo), 90 h; at 3.8 µM (top of the series).
Turning to `C[C@H]1CN([C@@H](C)CO)C(=O)c2cccc(NC(=O)c3nc4ccccc4s3)c2O[C@@H]1CN(C)S(=O)(=O)c1ccccc1`, the activity change, negative = cytotoxicity is 28.8% (inactive).
The same measure, in the same setting: the figure for `Cc1ccc(S(=O)(=O)Nc2ccc3c(c2)CC(=O)N([C@H](C)CO)C[C@@H](C)[C@H](CN(C)Cc2ccc(Cl)c(Cl)c2)O3)cc1` is 33.6% (inactive).

Staying with this assay, now noted: NIH/3T3 viability, ATP luminescence (CellTiter-Glo), 90 h; at 4.2 µM (top of the series).
Consider `C[C@@H]1CN([C@H](C)CO)C(=O)c2cccc(NC(=O)Nc3ccc(C(F)(F)F)cc3)c2O[C@@H]1CN(C)Cc1ccc(Cl)c(Cl)c1`, for which the activity change, negative = cytotoxicity is 37.5% (inactive).

Still in this assay, the particulars now being: NIH/3T3 viability, ATP luminescence (CellTiter-Glo), 90 h; at 18 µM (top of the series).
As for `C[C@H]1CN([C@@H](C)CO)C(=O)Cc2cc(NS(=O)(=O)c3ccc(Cl)cc3)ccc2O[C@@H]1CN(C)S(=O)(=O)c1ccc(Cl)cc1`, the activity change, negative = cytotoxicity is -1.6% (inactive).

The assay is the same for the next values; noted with them: NIH/3T3 viability, ATP luminescence (CellTiter-Glo), 90 h; at 19.5 µM (top of the series).
Take `Cc1ccc(S(=O)(=O)Nc2ccc3c(c2)CC(=O)N([C@H](C)CO)C[C@@H](C)[C@H](CN(C)S(=O)(=O)c2ccc(Cl)cc2)O3)cc1`: the activity change, negative = cytotoxicity was -23.3% (inactive).
Still for that read-out and setting: under `Cc1noc(C)c1NC(=O)Nc1cccc2c1O[C@H](CN(C)S(C)(=O)=O)[C@H](C)CN([C@H](C)CO)C2=O` stands -14.2% (inactive); under `C[C@H]1CN([C@@H](C)CO)C(=O)Cc2cc(NS(=O)(=O)c3ccccc3)ccc2O[C@H]1CN(C)S(=O)(=O)c1ccc(Cl)cc1`, -30.3% (inactive).
Still for that read-out and setting: the figure for `C[C@H](CO)N1C[C@H](C)[C@@H](CN(C)S(=O)(=O)c2ccc(Cl)cc2)Oc2c(NC(=O)c3nc4ccccc4s3)cccc2C1=O` is 14.7% (inactive).
On the same count and under the same terms, under `C[C@@H]1CN([C@H](C)CO)C(=O)c2cccc(NC(=O)c3ccncc3)c2O[C@@H]1CN(C)Cc1ccccc1` stands 4.84% (inactive); under `C[C@H](CO)N1C[C@H](C)[C@H](CN(C)Cc2ccccc2)Oc2c(NC(=O)c3ccncc3)cccc2C1=O`, 6.02% (inactive).
Regarding `C[C@@H]1CN([C@@H](C)CO)C(=O)Cc2cc(NS(=O)(=O)c3ccccc3)ccc2O[C@H]1CN(C)S(=O)(=O)c1ccc(Cl)cc1`, the activity change, negative = cytotoxicity is 0.768% (inactive).
With `Cc1noc(C)c1NC(=O)Nc1cccc2c1O[C@H](CN(C)S(C)(=O)=O)[C@H](C)CN([C@@H](C)CO)C2=O`, the activity change, negative = cytotoxicity was 1.29% (inactive).
Still for that read-out and setting: under `C[C@@H]1CN([C@H](C)CO)C(=O)c2cccc(NC(=O)c3ccncc3)c2O[C@@H]1CN(C)Cc1ccc(-c2ccccc2)cc1` stands 6.2% (inactive); under `C[C@H]1CN([C@@H](C)CO)C(=O)c2cccc(NC(=O)c3nc4ccccc4s3)c2O[C@H]1CN(C)S(=O)(=O)c1ccc(Cl)cc1`, 1.37% (inactive); under `Cc1ccc(S(=O)(=O)Nc2ccc3c(c2)CC(=O)N([C@@H](C)CO)C[C@H](C)[C@@H](CN(C)Cc2ccccc2)O3)cc1`, 30.9% (inactive).
Same read-out and setting: under `Cc1ccc(S(=O)(=O)N(C)C[C@H]2Oc3ccc(NS(=O)(=O)c4ccccc4)cc3CC(=O)N([C@@H](C)CO)C[C@@H]2C)cc1` stands 26% (inactive); under `COc1ccc(S(=O)(=O)Nc2ccc3c(c2)CC(=O)N([C@H](C)CO)C[C@@H](C)[C@H](CN(C)Cc2ccc4c(c2)OCO4)O3)cc1`, 4.02% (inactive).
For the molecule `C[C@H](CO)N1C[C@H](C)[C@@H](CN(C)Cc2ccc(C(F)(F)F)cc2)Oc2c(NC(=O)c3ccncc3)cccc2C1=O`, the activity change, negative = cytotoxicity is -10.8% (inactive).
On the same count and under the same terms, under `C[C@@H]1CN([C@@H](C)CO)C(=O)c2cccc(NC(=O)c3ccncc3)c2O[C@@H]1CN(C)Cc1ccc(C(F)(F)F)cc1` stands -16.7% (inactive).
Still for that read-out and setting: under `COc1ccc(CN(C)C[C@@H]2Oc3c(NC(=O)Nc4ccc(C(F)(F)F)cc4)cccc3C(=O)N([C@H](C)CO)C[C@@H]2C)cc1` stands -21.3% (inactive).
Same read-out and setting: the figure for `Cc1ccc(S(=O)(=O)Nc2ccc3c(c2)CC(=O)N([C@@H](C)CO)C[C@@H](C)[C@@H](CN(C)Cc2ccccc2)O3)cc1` is -13.8% (inactive); for `C[C@H](CO)N1C[C@H](C)[C@H](CN(C)S(=O)(=O)c2ccc(F)cc2)Oc2c(NC(=O)NC3CCCCC3)cccc2C1=O` it is -54.5% (inactive); for `C[C@H](CO)N1C[C@H](C)[C@H](CN(C)S(=O)(=O)c2ccc(Cl)cc2)Oc2ccc(NS(=O)(=O)c3ccc(Cl)cc3)cc2CC1=O` it is 7.06% (inactive).
As for `COc1ccc(CN(C)C[C@@H]2Oc3c(NC(=O)Nc4ccc(C(F)(F)F)cc4)cccc3C(=O)N([C@@H](C)CO)C[C@H]2C)cc1`, the activity change, negative = cytotoxicity was -16.2% (inactive).
The same measure, in the same setting: the figure for `C[C@@H]1CN([C@@H](C)CO)C(=O)c2cccc(NC(=O)Nc3ccc(C(F)(F)F)cc3)c2O[C@H]1CN(C)Cc1ccc(Cl)c(Cl)c1` is -34.5% (inactive).
Still for that read-out and setting: under `COc1ccc(CN(C)C[C@H]2Oc3c(NC(=O)Nc4ccc(C(F)(F)F)cc4)cccc3C(=O)N([C@H](C)CO)C[C@@H]2C)cc1` stands -1.02% (inactive); under `C[C@H](CO)N1C[C@H](C)[C@@H](CN(C)CC2CCCCC2)Oc2c(NC(=O)c3ccncc3)cccc2C1=O`, -21.4% (inactive).
Same read-out and setting: the figure for `C[C@H]1CN([C@@H](C)CO)C(=O)c2cccc(NC(=O)c3ccncc3)c2O[C@H]1CN(C)Cc1ccc(Cl)c(Cl)c1` is -14.4% (inactive); for `C[C@H](CO)N1C[C@H](C)[C@@H](CN(C)S(=O)(=O)c2ccc(Cl)cc2)Oc2ccc(NS(=O)(=O)c3ccccc3)cc2CC1=O` it is -20.3% (inactive); for `C[C@H]1CN([C@@H](C)CO)C(=O)c2cccc(NC(=O)c3ccncc3)c2O[C@@H]1CN(C)Cc1ccc(Cl)c(Cl)c1` it is -25.7% (inactive).
On to `Cc1ccc(S(=O)(=O)N(C)C[C@@H]2Oc3ccc(NS(=O)(=O)c4ccccc4)cc3CC(=O)N([C@H](C)CO)C[C@@H]2C)cc1`, for which the activity change, negative = cytotoxicity is 3.11% (inactive).
Still for that read-out and setting: under `Cc1noc(C)c1NC(=O)Nc1cccc2c1O[C@@H](CN(C)S(C)(=O)=O)[C@@H](C)CN([C@H](C)CO)C2=O` stands 13.3% (inactive); under `C[C@@H]1CN([C@H](C)CO)C(=O)Cc2cc(NS(=O)(=O)c3ccccc3)ccc2O[C@H]1CN(C)S(=O)(=O)c1ccc(Cl)cc1`, -1.38% (inactive); under `Cc1ccc(S(=O)(=O)Nc2ccc3c(c2)CC(=O)N([C@H](C)CO)C[C@H](C)[C@@H](CN(C)Cc2ccccc2)O3)cc1`, -0.645% (inactive).
Same read-out and setting: under `COc1ccc(CN(C)C[C@H]2Oc3c(NC(=O)Nc4ccc(C(F)(F)F)cc4)cccc3C(=O)N([C@@H](C)CO)C[C@H]2C)cc1` stands -11.1% (inactive); under `Cc1ccc(S(=O)(=O)Nc2ccc3c(c2)CC(=O)N([C@H](C)CO)C[C@@H](C)[C@H](CN(C)Cc2ccc4c(c2)OCO4)O3)cc1`, 11% (inactive).
Still for that read-out and setting: under `COc1ccc(CN(C)C[C@@H]2Oc3c(NC(=O)c4ccncc4)cccc3C(=O)N([C@H](C)CO)C[C@H]2C)cc1` stands -20.7% (inactive); under `C[C@@H]1CN([C@@H](C)CO)C(=O)c2cccc(NC(=O)c3nc4ccccc4s3)c2O[C@H]1CN(C)S(=O)(=O)c1ccc(Cl)cc1`, -6.73% (inactive).
For `C[C@H](CO)N1C[C@H](C)[C@@H](CN(C)S(=O)(=O)c2ccc(F)cc2)Oc2c(NC(=O)NC3CCCCC3)cccc2C1=O`, the activity change, negative = cytotoxicity was 5.78% (inactive).
On the same count and under the same terms, under `C[C@@H]1CN([C@H](C)CO)C(=O)Cc2cc(NS(=O)(=O)c3ccc(F)cc3)ccc2O[C@@H]1CN(C)Cc1ccc(Cl)c(Cl)c1` stands -49.8% (inactive); under `C[C@H]1CN([C@@H](C)CO)C(=O)c2cccc(NC(=O)c3nc4ccccc4s3)c2O[C@@H]1CN(C)S(=O)(=O)c1ccc(Cl)cc1`, -9.43% (inactive); under `C[C@@H]1CN([C@H](C)CO)C(=O)c2cccc(NC(=O)c3ccncc3)c2O[C@H]1CN(C)Cc1ccccc1`, 9% (inactive).
Still for that read-out and setting: the figure for `C[C@@H]1CN([C@H](C)CO)C(=O)c2cccc(NC(=O)c3ccncc3)c2O[C@H]1CN(C)CC1CCCCC1` is -12.3% (inactive).

The same assay, now with this note: NIH/3T3 viability, ATP luminescence (CellTiter-Glo), 90 h; at 21 µM (top of the series).
`Cc1ccc(S(=O)(=O)N(C)C[C@@H]2Oc3c(NC(=O)c4nc5ccccc5s4)cccc3C(=O)N([C@H](C)CO)C[C@H]2C)cc1`: the activity change, negative = cytotoxicity was 44.2% (inactive).
Same read-out and setting: the figure for `C[C@H]1CN([C@@H](C)CO)C(=O)c2cccc(NC(=O)c3ccncc3)c2O[C@@H]1CN(C)CC1CCCCC1` is -19.3% (inactive); for `Cc1ccc(S(=O)(=O)N(C)C[C@@H]2Oc3ccc(NS(=O)(=O)c4ccc(Cl)cc4)cc3CC(=O)N([C@H](C)CO)C[C@@H]2C)cc1` it is -5.69% (inactive); for `C[C@H]1CN([C@@H](C)CO)C(=O)Cc2cc(NS(=O)(=O)c3ccc(F)cc3)ccc2O[C@@H]1CN(C)Cc1ccc(Cl)c(Cl)c1` it is -12.6% (inactive).
The same measure, in the same setting: under `Cc1ccc(S(=O)(=O)Nc2ccc3c(c2)CC(=O)N([C@@H](C)CO)C[C@@H](C)[C@@H](CN(C)Cc2ccc(Cl)c(Cl)c2)O3)cc1` stands -67.6% (inactive); under `Cc1ccc(S(=O)(=O)N(C)C[C@@H]2Oc3ccc(NS(=O)(=O)c4ccc(Cl)cc4)cc3CC(=O)N([C@@H](C)CO)C[C@@H]2C)cc1`, 11.5% (inactive); under `C[C@H]1CN([C@@H](C)CO)C(=O)c2cccc(NC(=O)c3ccncc3)c2O[C@H]1CN(C)Cc1ccc2c(c1)OCO2`, 4.17% (inactive).
The same measure, in the same setting: the figure for `C[C@H](CO)N1C[C@H](C)[C@H](CN(C)S(=O)(=O)c2ccc(Cl)cc2)Oc2ccc(NS(=O)(=O)c3ccccc3)cc2CC1=O` is -11.3% (inactive).
